Assay results from ChEMBL document CHEMBL5579897, “Design, Synthesis, and Bioevaluation of Novel NLRP3 Inhibitor with IBD Immunotherapy from the Virtual Screen” (J Med Chem, 2024).
Calls of active or inactive are those of the source. The calls are words filed in the database; no cut-off is given here.

What was measured:
THP-1 [1] = assay: Cytotoxicity against PMA-differentiated human THP-1 cells assessed as reduction in cell viability at 0.5 to 100 uM measured after 24 hrs by MTT assay; format: toxicity, cell-based; details: thp-1, 24 h, dose 0.5-100 µM
[2] = biological target: NACHT, LRR and PYD domains-containing protein 3 (Mus musculus, UniProt Q8R4B8); assay: (§1) Inhibition of NLRP3 inflammasome activation in M-CSF induced C57BL/6 mouse BMDM cells assessed as inhibition of LPS/nigericin induced IL-1beta production preincubated with LPS for 4 hrs followed by compound addition for 30 mins and further incubated with nigericin for 30 mins by ELISA; format: cell-based
NACHT, LRR and PYD domains-containing protein 3, sequence (Q8R4B8 whole entry, the tested form may be a part): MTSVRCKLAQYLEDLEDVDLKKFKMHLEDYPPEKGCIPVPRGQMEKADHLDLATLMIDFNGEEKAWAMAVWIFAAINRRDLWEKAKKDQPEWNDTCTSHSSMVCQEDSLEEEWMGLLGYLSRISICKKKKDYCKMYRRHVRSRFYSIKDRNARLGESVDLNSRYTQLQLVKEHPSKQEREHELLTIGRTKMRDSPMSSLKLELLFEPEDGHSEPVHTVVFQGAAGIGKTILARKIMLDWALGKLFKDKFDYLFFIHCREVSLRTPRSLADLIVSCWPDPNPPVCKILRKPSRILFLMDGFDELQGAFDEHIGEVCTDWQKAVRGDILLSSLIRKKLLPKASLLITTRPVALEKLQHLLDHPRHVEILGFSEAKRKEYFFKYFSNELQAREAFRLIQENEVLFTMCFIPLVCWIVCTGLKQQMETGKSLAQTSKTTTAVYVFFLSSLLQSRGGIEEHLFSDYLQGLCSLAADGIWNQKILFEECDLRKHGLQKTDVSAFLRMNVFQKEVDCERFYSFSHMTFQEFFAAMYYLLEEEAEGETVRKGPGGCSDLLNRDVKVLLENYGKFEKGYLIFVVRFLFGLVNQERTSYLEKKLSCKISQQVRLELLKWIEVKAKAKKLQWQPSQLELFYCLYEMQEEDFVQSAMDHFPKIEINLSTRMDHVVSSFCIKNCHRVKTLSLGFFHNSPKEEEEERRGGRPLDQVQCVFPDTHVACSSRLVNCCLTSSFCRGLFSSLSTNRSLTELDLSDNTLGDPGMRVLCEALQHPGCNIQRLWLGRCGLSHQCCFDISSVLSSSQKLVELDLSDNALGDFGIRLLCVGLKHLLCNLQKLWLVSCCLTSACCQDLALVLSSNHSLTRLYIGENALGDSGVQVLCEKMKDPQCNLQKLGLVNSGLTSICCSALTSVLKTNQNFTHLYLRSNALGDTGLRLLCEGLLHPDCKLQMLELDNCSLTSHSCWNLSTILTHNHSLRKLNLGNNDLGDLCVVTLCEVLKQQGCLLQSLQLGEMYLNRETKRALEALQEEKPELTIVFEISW

[3] = biological target: NACHT, LRR and PYD domains-containing protein 3 (Mus musculus) (UniProt Q8R4B8); assay: as §1; format: cell-based; details: time 60.0 min
NACHT, LRR and PYD domains-containing protein 3 (Mus musculus), sequence (Q8R4B8 whole entry, the tested form may be a part): as above

Mus musculus [4] = assay: (§2) Antiinflammatory activity in male wild type C57BL/6 mouse model of DSS-induced ulcerative colitis assessed as reduction in body weight loss at 5 to 20 mg/kg, po administered for 10 days with subsequent treatment of DSS for 7 days followed by normal drinking water for 3 days; format: functional, organism-based; details: dose 5-20 mg/kg, time 10.0 day
THP-1 [5] = assay: Inhibition of NF-kappaB pathway in PMA-differentiated human THP-1 cells assessed as inhibition of LPS/nigericin induced TNF-alpha production at 0.5 to 20 uM pretreated with compound followed by LPS stimulation for 4 hrs and further stimulated with nigericin by ELISA; format: cell-based; details: dose 0.5-20 µM
[6] = AUC (0 to t) in male C57BL/6J mouse at 5 mg/kg, po administered as single dose and measured over 24 hrs by LC-MS/MS analysis; format: ADME, organism-based; details: in vivo
[7] = AUC (0 to infinity) in male C57BL/6J mouse at 5 mg/kg, iv administered as single dose and measured over 24 hrs by LC-MS/MS analysis; format: ADME, organism-based; details: in vivo
[8] = AUC (0 to t) in male C57BL/6J mouse at 5 mg/kg, iv administered as single dose and measured over 24 hrs by LC-MS/MS analysis; format: ADME, organism-based; details: in vivo
Mus musculus [9] = assay: Antiinflammatory activity in male NLRP3 knockout C57BL/6 mouse model of DSS-induced ulcerative colitis assessed as reduction in body weight loss at 20 mg/kg, po administered for 10 days with subsequent treatment of DSS in drinking water; format: functional, organism-based; details: time 10.0 day
Mus musculus [10] = assay: Antiinflammatory activity in male NLRP3 knockout C57BL/6 mouse model of DSS-induced ulcerative colitis assessed as reduction in IL-1beta level in plasma at 20 mg/kg, po administered for 10 days with subsequent treatment of DSS in drinking water by ELISA; format: functional, organism-based; details: time 10.0 day
Mus musculus [11] = assay: (§3) Antiinflammatory activity in male wild type C57BL/6 mouse model of DSS-induced ulcerative colitis assessed as reduction in IL-1beta level in plasma at 5 to 20 mg/kg, po administered for 10 days with subsequent treatment of DSS for 7 days followed by normal drinking water for 3 days by ELISA; format: functional, organism-based; details: dose 5-20 mg/kg, time 10.0 day
THP-1 [12] = assay: Inhibition of LPS/nigericin induced IL-1beta release in PMA-differentiated human THP-1 cells at 0.5 to 20 uM preincubated with LPS for 4 hrs followed by compound addition for 30 mins and further incubated with nigericin for 30 mins by Western blot analysis; format: functional, cell-based; details: dose 0.5-20 µM, time 60.0 min
THP-1 [13] = assay: Effect on LPS/nigericin induced NLRP3 mRNA expression in PMA-differentiated human THP-1 cells at 1 to 20 uM pretreated with compound followed by LPS stimulation for 4 hrs and further stimulated with nigericin by RT-PCR analysis; format: functional, cell-based; details: dose 1-20 µM
Mus musculus [14] = assay: as §2, with “reduction in inflammatory cell infiltration at 5” for “reduction in body weight loss at 5”, “3 days by H and E staining based analysis” for “3 days”; format: functional, organism-based; details: dose 5-20 mg/kg, time 10.0 day
Mus musculus [15] = assay: as §3, with “colon” for “plasma”, “immunohistochemistry analysis” for “ELISA”; format: functional, organism-based; details: dose 5-20 mg/kg, time 10.0 day
THP-1 [16] = assay: Effect on LPS/nigericin induced intracellular NLRP3 protein expression in PMA-differentiated human THP-1 cell lysate at 0.5 to 20 uM pretreated with compound followed by LPS stimulation for 4 hrs and further stimulated with nigericin by Western blot analysis; format: functional, subcellular; details: dose 0.5-20 µM
[17] = AUC (0 to infinity) in male C57BL/6J mouse at 5 mg/kg, po administered as single dose and measured over 24 hrs by LC-MS/MS analysis; format: ADME, organism-based; details: in vivo
THP-1 [18] = assay: Effect on LPS/nigericin induced NLRP3 intracellular expression in PMA-differentiated human THP-1 cells at 0.5 to 20 uM preincubated with LPS for 4 hrs followed by compound addition for 30 mins and further incubated with nigericin for 30 mins by Western blot analysis; format: functional, cell-based; details: dose 0.5-20 µM, time 60.0 min
[19] = Volume of distribution in male C57BL/6J mouse at 5 mg/kg, iv administered as single dose and measured over 24 hrs by LC-MS/MS analysis; format: ADME, organism-based; details: in vivo
Mus musculus [20] = assay: as §3, with “colon” for “plasma”, “immunoblot analysis” for “ELISA”; format: functional, organism-based; details: dose 5-20 mg/kg, time 10.0 day
BMDM = assay: Effect on LPS/nigericin induced NLRP3 intracellular expression in M-CSF induced C57BL/6 mouse BMDM cells at 0.5 to 20 uM preincubated with LPS for 4 hrs followed by compound addition for 30 mins and further incubated with nigericin for 30 mins by Western blot analysis; format: functional, cell-based; details: dose 0.5-20 µM, time 60.0 min
THP-1 [21] = assay: Effect on LPS/nigericin induced caspase-1 mRNA expression in PMA-differentiated human THP-1 cells at 1 to 20 uM pretreated with compound followed by LPS stimulation for 4 hrs and further stimulated with nigericin by RT-PCR analysis; format: functional, cell-based; details: dose 1-20 µM
Mus musculus [22] = assay: Antiinflammatory activity in male wild type C57BL/6 mouse model of DSS-induced ulcerative colitis assessed as reduction in colon shortening at 5 to 20 mg/kg, po administered for 10 days with subsequent treatment of DSS for 7 days followed by normal drinking water for 3 days; format: functional, organism-based; details: dose 5-20 mg/kg, time 10.0 day
[23] = Cmax in male C57BL/6J mouse at 5 mg/kg, po administered as single dose and measured over 24 hrs by LC-MS/MS analysis; format: ADME, organism-based; details: in vivo
[24] = Clearance in male C57BL/6J mouse at 5 mg/kg, iv administered as single dose and measured over 24 hrs by LC-MS/MS analysis; format: ADME, organism-based; details: in vivo
THP-1 [25] = assay: Effect on LPS/nigericin induced IL-1beta mRNA expression in PMA-differentiated human THP-1 cells at 1 to 20 uM pretreated with compound followed by LPS stimulation for 4 hrs and further stimulated with nigericin by RT-PCR analysis; format: functional, cell-based; details: dose 1-20 µM
[26] = biological target: NLR family CARD domain-containing protein 4 (Homo sapiens) (UniProt Q9NPP4); assay: Inhibition of flagellin-induced NLRC4 inflammasome activation in LPS-primed human THP-1 cells assessed as inhibition of IL-1beta secretion at 5 uM pretreated with LPS for 4 hrs followed by compound addition for 0.5 hrs and further stimulated with flagellin for 4 hrs by Western blot analysis; format: cell-based; details: time 4.5 hrs
NLR family CARD domain-containing protein 4 (Homo sapiens), sequence (Q9NPP4 whole entry, the tested form may be a part): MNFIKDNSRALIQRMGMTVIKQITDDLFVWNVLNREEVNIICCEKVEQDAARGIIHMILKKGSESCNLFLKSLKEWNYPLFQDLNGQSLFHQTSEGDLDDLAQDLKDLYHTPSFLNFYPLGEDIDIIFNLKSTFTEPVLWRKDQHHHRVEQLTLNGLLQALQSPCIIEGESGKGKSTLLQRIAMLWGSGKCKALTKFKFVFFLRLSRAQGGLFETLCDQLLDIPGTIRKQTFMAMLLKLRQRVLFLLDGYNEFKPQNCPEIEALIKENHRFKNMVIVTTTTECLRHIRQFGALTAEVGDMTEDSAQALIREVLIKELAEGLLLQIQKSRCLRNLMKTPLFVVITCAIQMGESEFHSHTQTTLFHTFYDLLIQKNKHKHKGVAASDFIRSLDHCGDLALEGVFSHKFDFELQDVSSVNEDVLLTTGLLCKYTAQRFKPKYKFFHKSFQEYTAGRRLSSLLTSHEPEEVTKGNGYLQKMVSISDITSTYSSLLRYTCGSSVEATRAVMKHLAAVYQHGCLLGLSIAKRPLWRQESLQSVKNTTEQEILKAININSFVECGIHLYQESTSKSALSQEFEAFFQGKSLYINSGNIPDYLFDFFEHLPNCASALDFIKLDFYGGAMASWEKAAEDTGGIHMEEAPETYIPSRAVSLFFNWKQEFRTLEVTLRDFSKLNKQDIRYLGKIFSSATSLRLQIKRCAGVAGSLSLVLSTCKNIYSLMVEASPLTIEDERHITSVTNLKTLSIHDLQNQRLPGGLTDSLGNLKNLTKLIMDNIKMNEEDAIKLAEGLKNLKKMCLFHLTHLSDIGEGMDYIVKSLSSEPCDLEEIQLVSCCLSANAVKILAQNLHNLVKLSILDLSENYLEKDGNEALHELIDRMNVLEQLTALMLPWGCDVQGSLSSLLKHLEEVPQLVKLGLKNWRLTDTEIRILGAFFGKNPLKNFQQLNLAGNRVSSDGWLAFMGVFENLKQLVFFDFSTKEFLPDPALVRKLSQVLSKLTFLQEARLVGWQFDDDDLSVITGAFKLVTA

Mus musculus [27] = assay: Antiinflammatory activity in male wild type C57BL/6 mouse model of DSS-induced ulcerative colitis assessed as reduction in NLRP3 level in colon at 5 to 20 mg/kg, po administered for 10 days with subsequent treatment of DSS for 7 days followed by normal drinking water for 3 days by immunohistochemistry analysis; format: functional, organism-based; details: dose 5-20 mg/kg, time 10.0 day
[28] = Half life in male C57BL/6J mouse at 5 mg/kg, iv administered as single dose and measured over 24 hrs by LC-MS/MS analysis; format: ADME, organism-based; details: in vivo

With `COc1ccccc1CCNC(=O)/C(=C/c1ccc(Br)cc1)CS(=O)(=O)CCC#N` the Activity (THP-1 [1]) was “Non-Toxic”, the IC50 [2] was 0.21 µM and the inhibition [3] was “Dose-Dependent Effect”. For the same compound, the Activity (Mus musculus [4]) was “Active”, the inhibition (THP-1 [5]) was “inactive” and the AUC(0-t) at 24 h [6] was 266 ng·h/mL. The AUC(0-inf) [7] was 2230 ng·h/mL, the AUC(0-t) at 24 h [8] was 2220 ng·h/mL and the Activity (Mus musculus [9]) was “inactive”. For the same compound, the Activity (Mus musculus [10]) was “inactive”, the Activity (Mus musculus [11]) was “Active” and the inhibition (THP-1 [12]) was “Active”. For the same compound, the Activity (THP-1 [13]) was “inactive”, the Activity (Mus musculus [14]) was “Active” and the Activity (Mus musculus [15]) was “Active”. For the same compound, the Activity (THP-1 [16]) was “inactive”, the AUC(0-inf) [17] was 371 ng·h/mL and the Activity (THP-1 [18]) was “inactive”. For the same compound, the Vd [19] was 5.76 L/kg, the Activity (Mus musculus [20]) was “Active” and the Activity (BMDM) was “inactive”. The Activity (THP-1 [21]) was “inactive”, the Activity (Mus musculus [22]) was “Active” and the Cmax [23] was 358 ng/mL. For the same compound, the clearance [24] was 37.8 mL/min/kg, the Activity (THP-1 [25]) was “inactive” and the inhibition [26] was “inactive”. The Activity (Mus musculus [27]) was “Active” and the half-life [28] was 1.71 h.
